Test results published in patent US20230002397A1, “SMALL MOLECULE DEGRADERS OF HELIOS AND METODS OF USE” (DANA-FARBER CANCER INSTITUTE, INC., priority 2019, published 2023).

Target: T1, IKZF2 (Homo sapiens, UniProt Q96SW2+Q9UKS7)
T1 construct: CRISPR/Cas9—mediated insertion of the HiBiT peptide tag (Promega™) to the N-terminus of the IKZF2 gene locus; endogenous in cells; host or cells: MOLT4 cells, with CRISPR/Cas9 knock-in of HiBiT at the endogenous IKZF2 locus
Assay: HiBit-IKZF2 assay (HiBiT-Helios degradation in MOLT4 cells)
Type: cell-based
Conditions: for Dmax: MOLT-4, extent of degradation from highest to lowest concentration, 10 μM to 0.00026 μM, read-out: Dmax; for DC50: concentration at which 50% of HiBiT-Helios degradation was achieved
Experimental: The HiBiT protein tagging system was applied to MOLT4 cells via a CRISPR/Cas9—mediated insertion of the HiBiT peptide tag (Promega™) to the N-terminus of the IKZF2 gene locus (Neon™ Transfection System). The resulting HiBiT-Helios stable cell line was treated with the following compounds in triplicates following a 13-point concentration scheme ranging from 10 μM to 0.00026 μM. At the indicated timepoints, the Nano-Glo® HiBiT Lytic Detection System (Promega™) was utilized for detecting bioluminescence of the HiBiT tag in treated cells: abundance of the tag is proportionate to the level of luminescence. Following normalization to DMSO, dose-response curves were plotted (GraphPad Prism) to determine the concentration points at which 50% of HiBiT-Helios degradation was achieved by each compound. The extent of degradation (range of luminescence) from the highest to lowest concentration points was calculated to determine the Dmax.

T1 sequence (Q9UKS7 whole entry): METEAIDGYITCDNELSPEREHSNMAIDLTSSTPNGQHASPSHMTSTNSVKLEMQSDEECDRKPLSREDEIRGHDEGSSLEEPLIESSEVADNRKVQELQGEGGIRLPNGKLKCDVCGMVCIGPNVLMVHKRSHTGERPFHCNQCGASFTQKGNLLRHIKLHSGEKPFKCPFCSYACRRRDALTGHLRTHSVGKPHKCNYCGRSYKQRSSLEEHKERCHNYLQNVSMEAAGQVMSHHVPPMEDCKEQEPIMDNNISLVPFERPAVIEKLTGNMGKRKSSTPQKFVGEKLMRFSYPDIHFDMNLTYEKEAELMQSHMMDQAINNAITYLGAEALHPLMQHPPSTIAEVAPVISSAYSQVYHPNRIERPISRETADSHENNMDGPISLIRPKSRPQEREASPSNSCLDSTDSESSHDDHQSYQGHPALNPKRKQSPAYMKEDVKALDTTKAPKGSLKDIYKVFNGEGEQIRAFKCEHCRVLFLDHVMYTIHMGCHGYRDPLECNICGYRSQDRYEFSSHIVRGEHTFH
T1 sequence (Q96SW2 whole entry): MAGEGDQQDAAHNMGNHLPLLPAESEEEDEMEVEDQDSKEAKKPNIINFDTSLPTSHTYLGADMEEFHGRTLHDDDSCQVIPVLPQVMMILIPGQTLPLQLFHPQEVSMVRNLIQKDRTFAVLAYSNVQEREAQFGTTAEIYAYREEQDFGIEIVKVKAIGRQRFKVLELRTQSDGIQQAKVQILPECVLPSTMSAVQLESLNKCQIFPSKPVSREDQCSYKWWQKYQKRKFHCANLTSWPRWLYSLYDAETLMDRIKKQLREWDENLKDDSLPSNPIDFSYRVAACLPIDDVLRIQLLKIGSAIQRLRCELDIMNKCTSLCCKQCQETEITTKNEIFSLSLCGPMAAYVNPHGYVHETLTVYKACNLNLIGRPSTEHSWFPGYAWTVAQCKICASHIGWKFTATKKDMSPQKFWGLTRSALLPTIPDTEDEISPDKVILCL
T1 sequence (Q16531 whole entry partner): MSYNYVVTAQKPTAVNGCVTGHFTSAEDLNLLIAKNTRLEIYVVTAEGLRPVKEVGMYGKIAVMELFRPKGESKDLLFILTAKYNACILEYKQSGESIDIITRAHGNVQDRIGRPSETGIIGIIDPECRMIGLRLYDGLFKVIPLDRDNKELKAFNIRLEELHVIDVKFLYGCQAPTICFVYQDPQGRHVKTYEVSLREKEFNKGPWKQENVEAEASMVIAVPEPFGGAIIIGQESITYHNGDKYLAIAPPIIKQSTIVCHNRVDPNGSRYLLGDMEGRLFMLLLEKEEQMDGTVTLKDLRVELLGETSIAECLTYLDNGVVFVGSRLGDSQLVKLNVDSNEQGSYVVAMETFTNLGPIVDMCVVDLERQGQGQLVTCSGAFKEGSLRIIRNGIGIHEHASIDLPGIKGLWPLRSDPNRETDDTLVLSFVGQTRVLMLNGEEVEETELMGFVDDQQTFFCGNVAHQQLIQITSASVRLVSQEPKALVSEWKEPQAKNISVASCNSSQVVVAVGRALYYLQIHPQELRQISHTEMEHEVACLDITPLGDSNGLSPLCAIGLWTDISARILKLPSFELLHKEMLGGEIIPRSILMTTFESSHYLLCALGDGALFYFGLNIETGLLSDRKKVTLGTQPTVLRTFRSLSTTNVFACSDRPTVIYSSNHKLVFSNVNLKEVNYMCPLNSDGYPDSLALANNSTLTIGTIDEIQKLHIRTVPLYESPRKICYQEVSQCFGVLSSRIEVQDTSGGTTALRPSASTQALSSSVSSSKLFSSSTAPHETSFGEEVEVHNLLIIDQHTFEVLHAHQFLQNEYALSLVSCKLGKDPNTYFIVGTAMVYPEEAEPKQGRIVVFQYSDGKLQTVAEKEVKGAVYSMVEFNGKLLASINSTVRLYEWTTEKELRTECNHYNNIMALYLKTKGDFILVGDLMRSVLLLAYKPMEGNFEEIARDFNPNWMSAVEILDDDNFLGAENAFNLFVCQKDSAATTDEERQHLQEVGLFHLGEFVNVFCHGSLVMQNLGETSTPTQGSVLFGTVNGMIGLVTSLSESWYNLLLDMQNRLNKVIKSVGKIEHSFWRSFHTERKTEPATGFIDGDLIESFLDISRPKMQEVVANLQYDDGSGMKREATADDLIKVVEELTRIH

Row | Compound | Dmax | DC50
1 | O=C1CCC(N2Cc3cc(C4CCN(Cc5cccc(N6CCC7(CC7)C6=O)c5)CC4)ccc3C2=O)C(=O)N1 (stereo not drawn) [Compound 10] | 30 to 50% | 10 to 30 nM
2 | O=C1CCC(N2Cc3cc(C4(O)CCN(Cc5csc(-c6ccccc6)n5)CC4)ccc3C2=O)C(=O)N1 (stereo not drawn) [Compound 33] | > 70% | < 10 nM
3 | N#CC1(COc2ccc(CN3CCC(c4ccc5c(c4)CN(C4CCC(=O)NC4=O)C5=O)CC3)cc2)CC1 (stereo not drawn) [Compound 45, 1-((4-((4-(2-(2,6-dioxopiperidin-3-yl)-1-oxoisoindolin-5-yl)piperidin-1-yl)methyl)phenoxy)methyl)cyclopropane-1-carbonitrile] | 50 to 70% | 10 to 30 nM
4 | O=C1CCC(N2Cc3cc(C4CCN(Cc5cccc(N6CCN(c7ccccc7)C6=O)c5)CC4)ccc3C2=O)C(=O)N1 (stereo not drawn) [Compound 48] | 50 to 70% | 30 to 150 nM
5 | O=C1CCC(N2Cc3cc(C4CCN(Cc5cccc(NC(=O)c6ccccc6)c5)CC4)ccc3C2=O)C(=O)N1 (stereo not drawn) [Compound 50] | 50 to 70% | 10 to 30 nM
6 | O=C1CCC(N2Cc3cc(C4CCN(Cc5cccc(N6Cc7ccccc7C6=O)c5)CC4)ccc3C2=O)C(=O)N1 (stereo not drawn) [Compound 51] | 50 to 70% | < 10 nM
7 | O=C1CCC(N2Cc3cc(C4CCN(Cc5ccc(S(=O)(=O)N6CC7C(C6)C7(F)F)cc5)CC4)ccc3C2=O)C(=O)N1 (stereo not drawn) [Compound 58] | 30 to 50% | 10 to 30 nM
8 | O=C1CCC(N2Cc3cc(C4CCN(Cc5cccc(S(=O)(=O)N6CC7C(C6)C7(F)F)c5)CC4)ccc3C2=O)C(=O)N1 (stereo not drawn) [Compound 59] | 50 to 70% | < 10 nM
9 | O=C1CCC(N2Cc3cc(C4CCN(Cc5cccc(S(=O)(=O)N6CCC7(CC7)C6)c5)CC4)ccc3C2=O)C(=O)N1 (stereo not drawn) [Compound 60] | 50 to 70% | 10 to 30 nM
10 | O=C1CCC(N2Cc3cc(C4CCN(Cc5cccc(S(=O)(=O)N6CC7(COC7)C6)c5)CC4)ccc3C2=O)C(=O)N1 (stereo not drawn) [Compound 62] | 50 to 70% | 30 to 150 nM
11 | O=C1CCC(N2Cc3cc(C4CCN(Cc5ccc6c(c5)S(=O)(=O)N(c5ccccc5)C6)CC4)ccc3C2=O)C(=O)N1 (stereo not drawn) [Compound 80] | 30 to 50% | 30 to 150 nM
12 | O=C1CCC(N2Cc3cc(C4CCN(Cc5cccc(S(=O)(=O)N6CCOc7ccccc76)c5)CC4)ccc3C2=O)C(=O)N1 (stereo not drawn) [Compound 84] | 50 to 70% | 30 to 150 nM
13 | O=C1CCC(N2Cc3cc(C4CCN(Cc5cccc(C(=O)Nc6ccccc6)c5)CC4)ccc3C2=O)C(=O)N1 (stereo not drawn) [Compound 86, 3-((4-(2-(2,6-dioxopiperidin-3-yl)-1-oxoisoindolin-5-yl)piperidin-1-yl)methyl)-N-phenylbenzamide] | 50 to 70% | < 10 nM
14 | O=C1CCC(N2Cc3cc(C4CCN(Cc5ccc(S(=O)(=O)Nc6ccccc6)cc5)CC4)ccc3C2=O)C(=O)N1 (stereo not drawn) [Compound 91] | 50 to 70% | < 10 nM
15 | CN(c1ccccc1)S(=O)(=O)c1ccc(CN2CCC(c3ccc4c(c3)CN(C3CCC(=O)NC3=O)C4=O)CC2)cc1 (stereo not drawn) [Compound 92] | 50 to 70% | < 10 nM
16 | O=C1CCC(N2Cc3cc(C4CCN(Cc5cccc(N6C(=O)Cc7ccccc76)c5)CC4)ccc3C2=O)C(=O)N1 (stereo not drawn) [Compound 95] | 50 to 70% | < 10 nM
17 | O=C1CCC(N2Cc3cc(C4CCN(Cc5cccc(N6CCCCS6(=O)=O)c5)CC4)ccc3C2=O)C(=O)N1 (stereo not drawn) [Compound 97] | 30 to 50% | 10 to 30 nM
18 | CN(c1ccccc1)S(=O)(=O)c1cccc(CN2CCC(c3ccc4c(c3)CN(C3CCC(=O)NC3=O)C4=O)CC2)c1 (stereo not drawn) [Compound 98] | 50 to 70% | < 10 nM
19 | CN(c1ccccn1)S(=O)(=O)c1ccc(CN2CCC(c3ccc4c(c3)CN(C3CCC(=O)NC3=O)C4=O)CC2)cc1 (stereo not drawn) [Compound 99] | 30 to 50% | 30 to 150 nM
20 | O=C1CCC(N2Cc3cc(C4CCN(Cc5ccc6c(c5)C(=O)N(c5ccccc5)CC6)CC4)ccc3C2=O)C(=O)N1 (stereo not drawn) [Compound 105, 3-(1-oxo-5-(1-((1-oxo-2-phenyl-1,2,3,4-tetrahydroisoquinolin-7-yl)methyl)piperidin-4-yl)isoindolin-2-yl)piperidine-2,6-dione] | 50 to 70% | < 10 nM
21 | O=C1CCC(N2Cc3cc(C4CCN(Cc5ccccc5C(=O)N5CC6C(C5)C6(F)F)CC4)ccc3C2=O)C(=O)N1 (stereo not drawn) [Compound 111] | 30 to 50% | 30 to 150 nM
22 | O=C1CCC(N2Cc3cc(C4CCN(Cc5cccc(N6C(=O)Cc7cccnc76)c5)CC4)ccc3C2=O)C(=O)N1 (stereo not drawn) [Compound 118] | 30 to 50% | 30 to 150 nM

Results, then the compound that gave them:

Row | Dmax | DC50 | Compound
23 | 50 to 70% | < 10 nM | O=C1CCC(N2Cc3cc(C4CCN(Cc5cccc(Nc6ccccn6)c5)CC4)ccc3C2=O)C(=O)N1 (stereo not drawn) [Compound 42, 3-(1-oxo-5-(1-(3-(pyridin-2-ylamino)benzyl)piperidin-4-yl)isoindolin-2-yl)piperidine-2,6-dione]
24 | 50 to 70% | 30 to 150 nM | O=C1CCC(N2Cc3cc(C4CCN(Cc5ccnc(Oc6ccccc6)c5)CC4)ccc3C2=O)C(=O)N1 (stereo not drawn) [Compound 43, 3-(1-oxo-5-(1-((2-phenoxypyridin-4-yl)methyl)piperidin-4-yl)isoindolin-2-yl)piperidine-2,6-dione]
25 | 50 to 70% | < 10 nM | O=C1CCC(N2Cc3cc(C4CCN(Cc5cccc(Nc6ccccc6)c5)CC4)ccc3C2=O)C(=O)N1 (stereo not drawn) [Compound 46, 3-(1-oxo-5-(1-(3-(phenylamino)benzyl)piperidin-4-yl)isoindolin-2-yl)piperidine-2,6-dione]
26 | 50 to 70% | 10 to 30 nM | O=C1CCC(N2Cc3cc(C4CCN(Cc5nccc(Nc6ccccc6)c5F)CC4)ccc3C2=O)C(=O)N1 (stereo not drawn) [Compound 100]
27 | 30 to 50% | 10 to 30 nM | O=C1CCC(N2Cc3cc(C4CCN(Cc5cccc(Nc6ccccn6)n5)CC4)ccc3C2=O)C(=O)N1 (stereo not drawn) [Compound 101]
28 | 50 to 70% | 10 to 30 nM | O=C1CCC(N2Cc3cc(C4CCN(Cc5nccc(Nc6ccccn6)n5)CC4)ccc3C2=O)C(=O)N1 (stereo not drawn) [Compound 102]
29 | 30 to 50% | < 10 nM | O=C1CCC(N2Cc3cc(C4CCN(Cc5cccc6c5CN(c5ccccc5)C6=O)CC4)ccc3C2=O)C(=O)N1 (stereo not drawn) [Compound 113]
30 | 50 to 70% | < 10 nM | O=C1CCC(N2Cc3cc(C4CCN(Cc5ccnc(Nc6ccccn6)c5)CC4)ccc3C2=O)C(=O)N1 (stereo not drawn) [Compound 115]
31 | 30 to 50% | 30 to 150 nM | O=C1CCC(N2Cc3cc(C4CCN(Cc5cc(Nc6ccccc6)ncn5)CC4)ccc3C2=O)C(=O)N1 (stereo not drawn) [Compound 116]
32 | 30 to 50% | 30 to 150 nM | O=C1CCC(N2Cc3cc(C4CCN(Cc5ccccc5N5Cc6ccccc6C5=O)CC4)ccc3C2=O)C(=O)N1 (stereo not drawn) [Compound 117]
33 | 30 to 50% | 30 to 150 nM | O=C1CCC(N2Cc3cc(C4CCN(Cc5cccnc5Oc5ccccc5)CC4)ccc3C2=O)C(=O)N1 (stereo not drawn) [Compound 119]
34 | 50 to 70% | 10 to 30 nM | O=C1CCC(N2Cc3cc(C4CCN(Cc5ccccc5Nc5ccccn5)CC4)ccc3C2=O)C(=O)N1 (stereo not drawn) [Compound 120]
35 | 30 to 50% | 30 to 150 nM | O=C1CCC(N2Cc3cc(C4CCN(Cc5cccc6c5C(=O)N(c5ccccc5)C6)CC4)ccc3C2=O)C(=O)N1 (stereo not drawn) [Compound 121]
36 | 30 to 50% | 10 to 30 nM | O=C1CCC(N2Cc3cc(C4CCN(Cc5ccnc(Nc6ccccc6)n5)CC4)ccc3C2=O)C(=O)N1 (stereo not drawn) [Compound 122]
